In ChEMBL document CHEMBL5257084, “Novel inhibitors of Rickettsia prowazekii methionine aminopeptidase from the Malaria Box” (Bioorg Med Chem Lett, 2023):
pIC50: −log10 of the molar value.

Assays:
[1] = Inhibition of Rickettsia prowazekii Methionine aminopeptidase 1; type: single protein
Rickettsia prowazekii = experiment: Inhibition of Rickettsia prowazekii Methionine aminopeptidase 1 at 10 uM relative to control

SMILES	pIC50 [1]	inhibition (Rickettsia prowazekii) [%]
O=C(NC(c1ccccc1)c1ccc2cccnc2c1O)c1ccccc1 (stereo not given)	4.92	> 50
CCn1c(CN2CCN(Cc3ccccc3)CC2)nc2cc(NC(=O)c3cccs3)ccc21	5.05	> 50
CSC1=N/C(=N\c2c(C)cccc2C)C2(CCC(C(C)(C)C)CC2)N1c1ccc(Cl)cc1 (stereo not given)	5.05	> 50
O=C(O)c1ccc(-c2ccccc2Cl)o1	5.62	
O=C(NCC(c1ccsc1)N1CCCCCC1)c1ccc(C(F)(F)F)cc1 (stereo not given)	4.82	> 50
COc1ccc(-c2c(C)nn3c(N)c(C#N)cnc23)cc1OC	5.05	> 50
c1ccc(Cn2c(/N=N/c3c(Nc4ccccc4)ccc4ccccc34)nc3ccccc32)cc1	5.72	> 50
COc1cccc(NC(=O)[C@H](C(C)C)n2c(=O)[nH]c3ccccc3c2=O)c1	4.66	> 50
COc1ccc(/C=C2\SC(=N)N(c3ccccc3OC)C2=O)cc1	5.36	> 50
COc1ccc(C2=C(c3ccc(OC)cc3)C3(c4ccccc4)C(=O)C2(c2ccccc2)C2C(=O)N(c4ccc(C)cc4)C(=O)C23)cc1 (stereo not given)	5.40	> 50
CC(C)OCc1cc(CN2CCN(c3cccc(Cl)c3)CC2)c(O)c2ncccc12	5.42	> 50
CCCc1c(CC)c(=N)c2ccccc2n1C	5.80	> 50
Cc1ccc(N2C3c4ccccc4N(S(=O)(=O)c4ccc(C)cc4)C2c2ccccc2N3S(=O)(=O)c2ccc(C)cc2)cc1	6.10	> 50
